Data as given in ChEMBL document CHEMBL1145337, “Antitumor agents. 5. synthesis, structure-activity relationships, and biological evaluation of dimethyl-5H-pyridophenoxazin-5-ones, tetrahydro-5h-benzopyridophenoxazin-5-ones, and 5h-benzopyridophenoxazin-5-ones with potent antiproliferative activity” (J Med Chem, 2006).
Active and inactive are the calls of the source. No cut-off for these calls is given here. *1 amine or outer side, *2 acyl side, *3 side chain or, on linkers, in order; H or OH if unused. Where a SMILES comes first, the peptide text is derived from it. Bridges are numbered along the chain shown (N, C = ends). Roman numbers before positions name the chains, in order. [ ]: non-standard residue; d: D form. Actinocin(1to9) = Cc1c2oc3c(C)ccc(C(=O)[*:2])c3nc-2c(C(=O)[*:1])c(N)c1=O; NMeV = CN[C@H](C(=O)O)C(C)C; Sar = CNCC(=O)O

How the values were obtained:
HT-29 [1] = test: Antiproliferative activity against human HT29 cell line by MTT assay; type: functional, cell-based
KB = test: Antiproliferative activity against human KB cell line by MTT assay; type: functional, cell-based
CCRF-SB = test: Antiproliferative activity against human CCRF-SB cell line by MTT assay; type: functional, cell-based
MT4 = test: Antiproliferative activity against human MT4 cell line by MTT assay; type: functional, cell-based
HT-29 [2] = test: Cell cycle arrest in HT29 cells by accumulation at S phase by flow cytometry at […]; type: functional, Homo sapiens
WIL2-NS = test: Antiproliferative activity against human Wil2-NS cells by MTT assay; type: functional, cell-based
HeLa = test: Antiproliferative activity against human HeLa cells by MTT assay; type: functional, cell-based
HEp-2 = test: Antiproliferative activity against human Hep2 cell line by MTT assay; type: functional, cell-based
C8166 = test: Antiproliferative activity against human C8166 cell line by MTT assay; type: functional, cell-based
[3] = molecular target: T1, DNA topoisomerase 1 (Homo sapiens) (UniProt P11387); test: Unwinding of DNA mediated by topoisomerase 1 at 20 uM
T1 sequence (whole entry): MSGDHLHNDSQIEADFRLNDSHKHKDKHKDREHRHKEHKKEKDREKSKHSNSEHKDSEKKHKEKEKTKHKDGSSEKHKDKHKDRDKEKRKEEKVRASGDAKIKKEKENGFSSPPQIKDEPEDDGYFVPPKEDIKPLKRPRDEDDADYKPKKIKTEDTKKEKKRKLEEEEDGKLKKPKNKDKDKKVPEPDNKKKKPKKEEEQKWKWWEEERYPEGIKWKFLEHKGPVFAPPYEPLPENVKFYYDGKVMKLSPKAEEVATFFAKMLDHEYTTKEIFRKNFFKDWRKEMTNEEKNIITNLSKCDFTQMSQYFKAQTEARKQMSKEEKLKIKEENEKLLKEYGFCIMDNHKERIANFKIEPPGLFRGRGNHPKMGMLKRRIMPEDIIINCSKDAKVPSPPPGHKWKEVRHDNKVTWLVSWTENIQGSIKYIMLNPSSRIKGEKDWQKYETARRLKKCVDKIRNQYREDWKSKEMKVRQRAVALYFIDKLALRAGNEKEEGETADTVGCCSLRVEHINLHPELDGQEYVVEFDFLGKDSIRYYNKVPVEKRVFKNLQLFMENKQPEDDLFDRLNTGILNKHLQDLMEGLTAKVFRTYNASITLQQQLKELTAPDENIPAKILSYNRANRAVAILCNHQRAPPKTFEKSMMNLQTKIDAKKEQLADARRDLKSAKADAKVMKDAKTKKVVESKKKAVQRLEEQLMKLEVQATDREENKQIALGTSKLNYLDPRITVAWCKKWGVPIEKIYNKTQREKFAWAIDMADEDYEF

5637 = test: Antiproliferative activity against human 5637 cell line by MTT assay; type: functional, cell-based
[4] = molecular target: DNA topoisomerase II (Homo sapiens) (UniProt P11388+Q02880); test: Promotion of human topoisomerase 2-mediated DNA cleavage; type: protein assay
G-361 = test: Antiproliferative activity against human G361 cell line by MTT assay; type: functional, cell-based
[5] = molecular target: T1, DNA topoisomerase 1 (Homo sapiens); test: Promotion of human topoisomerase 1-mediated DNA cleavage
ACHN = test: Antiproliferative activity against human ACHN cell line by MTT assay; type: functional, cell-based
MOLT-4 = test: Antiproliferative activity against human MOLT4 cell line by MTT assay; type: functional, cell-based
HT-29 [6] = test: Cell cycle arrest in HT29 cells by accumulation at G0/G1 phase by flow cytometry at […]; type: functional, Homo sapiens
CCRF-CEM = test: Antiproliferative activity against human CCRF-CEM cell line by MTT assay; type: functional, cell-based
HT-29 [7] = test: Cell cycle arrest in HT29 cells by accumulation at G2/M phase by flow cytometry at […]; type: functional, Homo sapiens

Row | SMILES | IC50 (HT-29 [1]) | IC50 (KB) | IC50 (CCRF-SB) | IC50 (HeLa) | Activity [3] | Activity [4] | Activity [5] | IC50 (ACHN) | IC50 (MOLT-4) | IC50 (CCRF-CEM) | IC50 (MT4) | Activity (HT-29 [2]) | IC50 (WIL2-NS) | IC50 (HEp-2) | IC50 (C8166) | IC50 5637 | IC50 (G-361) | Activity (HT-29 [6]) | Activity (HT-29 [7])
1 | O=c1cc2oc3ccccc3nc-2c2cccnc12 | 200 nM | 100 nM | 10 nM |  |  |  |  |  |  |  | 20 nM |  |  |  |  |  |  |  | 
2 | O=c1cc2oc3ccc4ccccc4c3nc-2c2cccnc12 | 2 nM | 10 nM | 10 nM | 1 nM | Active | inactive | inactive | 10 nM | 40 nM | 1 nM | 10 nM | 23.42% | 5 nM | 40 nM | 1 nM | 10 nM | 20 nM | 27.93% | 48.66%
3 | COc1cccc2c1C(=O)c1c(O)c3c(c(O)c1C2=O)C[C@@](O)(C(=O)CO)C[C@@H]3O[C@H]1C[C@H](N)[C@H](O)[C@H](C)O1 [DOXORUBICIN] |  | 150 nM |  |  |  |  |  | 1 nM |  |  |  |  |  |  |  |  |  |  | 
4 | O=c1cc2oc3cc4ccccc4cc3nc-2c2cccnc12 | 30 nM | 20 nM | 10 nM | 50 nM |  | inactive | inactive | 20 nM | 10 nM | 4 nM | 50 nM | 20.93% | 10 nM | 50 nM | 20 nM | 20 nM | 10 nM | 24.06% | 55.01%
5 | Cc1c2oc3c(C)ccc(C(=O)N[C@@H]4C(=O)N[C@H](C(C)C)C(=O)N5CCC[C@H]5C(=O)N(C)CC(=O)N(C)[C@@H](C(C)C)C(=O)O[C@@H]4C)c3nc-2c(C(=O)N[C@@H]2C(=O)N[C@H](C(C)C)C(=O)N3CCC[C@H]3C(=O)N(C)CC(=O)N(C)[C@@H](C(C)C)C(=O)O[C@@H]2C)c(N)c1=O [DACTINOMYCIN] (I: T[dV]P[Sar][NMeV] / II: T[dV]P[Sar][NMeV]; ester I:1-I:C, II:1-II:C; linker I:N-II:N via Actinocin(1to9)) |  | 1 nM |  |  |  |  |  |  |  |  |  |  |  |  |  |  |  |  | 
6 | O=c1cc2oc3cc4c(cc3nc-2c2cccnc12)CCCC4 | 3300 nM | 1000 nM | 2000 nM | 1100 nM |  |  |  | 1400 nM | 1800 nM | 1100 nM | 1500 nM |  | 1200 nM | 1700 nM | 1000 nM | 1000 nM | 1500 nM |  | 
7 | O=c1cc2oc3c(ccc4ccccc43)nc-2c2cccnc12 | 300 nM | 100 nM | 20 nM | 200 nM |  | inactive | inactive | 500 nM | 90 nM | 50 nM | 100 nM | 43.88% | 60 nM | 60 nM | 100 nM | 100 nM | 50 nM | 17.63% | 38.49%
8 | O=c1cc2oc3c4c(ccc3nc-2c2cccnc12)CCCC4 | 2100 nM | 1000 nM | 1400 nM | 2500 nM |  |  |  | 1900 nM | 1900 nM | 1900 nM | 1500 nM |  | 2100 nM | 1800 nM | 1000 nM | 1100 nM | 2000 nM |  | 

Second part, led by results:

Row | IC50 (HT-29 [1]) | IC50 (KB) | IC50 (CCRF-SB) | IC50 (HeLa) | Activity [3] | Activity [4] | Activity [5] | IC50 (ACHN) | IC50 (MOLT-4) | IC50 (CCRF-CEM) | SMILES | IC50 (MT4) | Activity (HT-29 [2]) | IC50 (WIL2-NS) | IC50 (HEp-2) | IC50 (C8166) | IC50 5637 | IC50 (G-361) | Activity (HT-29 [6]) | Activity (HT-29 [7])
9 | 5500 nM | 500 nM | 400 nM | 900 nM |  |  |  | 500 nM | 1600 nM | 700 nM | Cc1ccc(C)c2oc3cc(=O)c4ncccc4c-3nc12 | 80 nM |  | 1100 nM | 400 nM | 8000 nM | 10 nM | 700 nM |  | 
10 | 1000 nM | 1700 nM | 1000 nM | 1600 nM |  |  |  | 1800 nM | 3200 nM | 1300 nM | O=c1cc2oc3ccc4c(c3nc-2c2cccnc12)CCCC4 | 1300 nM |  | 4000 nM | 1900 nM | 2000 nM | 1900 nM | 1300 nM |  | 
11 | 30 nM | 90 nM | 40 nM | 800 nM |  |  |  | 400 nM | 300 nM | 150 nM | Cc1cc2nc3c4cccnc4c(=O)cc-3oc2cc1C | 100 nM |  | 400 nM | 800 nM | 40 nM | 800 nM | 900 nM |  | 
12 | 1200 nM | 700 nM | 1200 nM | 2600 nM |  |  |  | 1800 nM | 2700 nM | 200 nM | Cc1ccc2oc3cc(=O)c4ncccc4c-3nc2c1C | 300 nM |  | 2000 nM | 1300 nM | 1100 nM | 900 nM | 1300 nM |  | 
13 | 200 nM | 300 nM | 20 nM | 200 nM |  |  |  | 1 nM | 500 nM | 100 nM | Cc1cc(C)c2nc3c4cccnc4c(=O)cc-3oc2c1 | 40 nM |  | 70 nM | 300 nM | 200 nM | 5 nM | 1 nM |  | 
14 | 6900 nM | 400 nM | 100 nM | 600 nM |  |  |  | 5 nM | 3000 nM | 6000 nM | Cc1ccc2nc3c4cccnc4c(=O)cc-3oc2c1C | 300 nM |  | 1800 nM | 400 nM | 500 nM | 1800 nM | 30 nM |  | 
15 | 1600 nM | 1200 nM | 300 nM | 1700 nM |  |  |  | 900 nM | 1200 nM | 150 nM | Cc1cc(C)c2oc3cc(=O)c4ncccc4c-3nc2c1 | 100 nM |  | 900 nM | 1100 nM | 500 nM | 600 nM | 1500 nM |  | 
